# Results as given in ChEMBL document CHEMBL1201862, “PubChem BioAssay data set” (2004).
# Calls of active or inactive are those of the source.
# Legend:
# [1] = Luminescence Cell-Based Dose Response HTS to Identify Activators of Luciferase Translation or Activity in H4 […] Cells. [Related pubchem assays: 1829 (Project Summary), 1814 (Primary HTS)]; assay type: functional
# H4 = assay: Luminescence Cell-Based Dose Response HTS to Identify Activators of 5'UTR Stem-Loop Driven Prion Protein mRNA Translation in H4 Neuroglioblastoma Cells. [Related pubchem assays: 1829 (Project Summary), 1814 (Primary HTS)]; assay type: functional; conditions: Homo sapiens
# [2] = target: Induced myeloid leukemia cell differentiation protein Mcl-1 (Homo sapiens, UniProt Q07820); assay type: functional
# Induced myeloid leukemia cell differentiation protein Mcl-1, sequence (Q07820 whole entry): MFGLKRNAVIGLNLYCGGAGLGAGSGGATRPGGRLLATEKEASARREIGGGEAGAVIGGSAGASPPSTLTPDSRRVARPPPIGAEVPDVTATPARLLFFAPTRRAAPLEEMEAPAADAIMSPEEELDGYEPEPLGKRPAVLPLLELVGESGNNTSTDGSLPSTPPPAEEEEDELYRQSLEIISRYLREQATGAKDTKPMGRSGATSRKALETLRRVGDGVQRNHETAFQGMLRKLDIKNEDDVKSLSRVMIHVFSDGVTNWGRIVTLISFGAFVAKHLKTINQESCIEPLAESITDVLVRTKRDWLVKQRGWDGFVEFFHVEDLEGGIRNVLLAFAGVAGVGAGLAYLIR
# Leucine aminopeptidase = target: T1, Leucine aminopeptidase (Plasmodium falciparum 3D7, UniProt Q8IL11); assay: P. falciparum M17LAP inhibitors, primary screen, biochemical, fluorogenic H-Leu-NHMec substrate, 1536-well (AID 1619); assay type: functional
# T1 sequence (Q8IL11 whole entry): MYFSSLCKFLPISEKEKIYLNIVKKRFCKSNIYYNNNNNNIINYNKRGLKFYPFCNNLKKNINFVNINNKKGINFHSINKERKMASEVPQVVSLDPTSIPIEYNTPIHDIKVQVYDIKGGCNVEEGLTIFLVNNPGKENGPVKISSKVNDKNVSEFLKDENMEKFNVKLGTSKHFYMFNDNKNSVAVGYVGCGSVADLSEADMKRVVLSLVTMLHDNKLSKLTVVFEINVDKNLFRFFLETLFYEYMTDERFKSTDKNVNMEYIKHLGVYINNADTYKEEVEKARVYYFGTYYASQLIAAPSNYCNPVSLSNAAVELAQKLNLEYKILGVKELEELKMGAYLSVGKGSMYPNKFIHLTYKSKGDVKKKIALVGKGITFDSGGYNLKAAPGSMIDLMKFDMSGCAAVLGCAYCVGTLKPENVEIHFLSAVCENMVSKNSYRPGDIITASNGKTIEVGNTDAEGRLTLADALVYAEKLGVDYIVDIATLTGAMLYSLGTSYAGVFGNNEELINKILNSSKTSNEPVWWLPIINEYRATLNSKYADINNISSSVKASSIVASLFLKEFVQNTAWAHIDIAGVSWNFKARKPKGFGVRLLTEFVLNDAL
# [3] = target: FAD-linked sulfhydryl oxidase ALR (Homo sapiens, UniProt P55789); assay: ALR-catalysed DTT oxidation blockers – biochemical, H2O2 detection, luminescence, cherry-pick, dose response (AID 493248)
# FAD-linked sulfhydryl oxidase ALR, sequence (P55789 whole entry): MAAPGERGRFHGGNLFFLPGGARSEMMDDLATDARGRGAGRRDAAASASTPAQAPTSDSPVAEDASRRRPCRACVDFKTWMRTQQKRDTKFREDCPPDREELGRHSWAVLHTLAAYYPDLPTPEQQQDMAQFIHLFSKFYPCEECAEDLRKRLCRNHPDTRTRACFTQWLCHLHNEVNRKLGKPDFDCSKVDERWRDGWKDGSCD
# cells = assay type: functional
# BJ [4] = assay: BJ-TERT fibroblast viability loss – cell-based, RAS-independent, luminescence, dose response (AID 1933); assay type: functional; conditions: Homo sapiens
# BJ [5] = assay: cells; assay type: functional, cell-based; conditions: Homo sapiens
# BJ [6] = assay: BJ-TERT-LT-ST fibroblast viability loss – cell-based, RAS-independent, luminescence, dose response (AID 1935); assay type: functional; conditions: Homo sapiens;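 also: BJ fibroblasts immortalized with TERT plus LT and ST oncogenes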
# [7] = DRD fibroblast viability loss – cell-based, non-viral oncogenic, luminescence, dose response (AID 1934); assay type: functional; conditions: Homo sapiens
smiles,measurement,setting,value
CC(=O)c1sc2nc(-c3cccs3)ccc2c1N,EC50,[1],> 120 µM (not active)
same,EC50,H4,33.2 µM (inconclusive)
same,IC50,[2],7.08 µM (not active)
O=C(O)C1CC=CCC1C(=O)Nc1ccc2c(c1)OCCO2 (stereo not drawn),IC50,Leucine aminopeptidase,13.4 µM (active)
CCS(=O)(=O)N1Cc2ccccc2CC1C(=O)N1CCN(c2ccccc2)CC1 (stereo not drawn),AC50,[3],12.1 µM (active)
COC(=O)c1ccc(COC(=O)c2ccccn2)cc1,IC50,cells,26.6 µM (active)
COc1ccc(OC)c(C(=O)N2CCCC(Nc3ccc(F)cc3)C2)c1 (stereo not drawn),AC50,[3],1.92 µM (active)
Cc1ccc(C(=O)Nc2nc(-c3ccc([N+](=O)[O-])cc3)cs2)o1,AC50,[3],0.675 µM (active)
CC(=O)Nc1c(O)nc(SCC(=O)Nc2cccc(C)c2)[nH]c1=O,IC50,Leucine aminopeptidase,9.85 µM (active)
Cn1c(=O)c(C(=O)COC(=O)c2cc(-c3ccco3)nc3ccccc23)c(N)n(CC2CC2)c1=O,IC50,[2],1.99 µM (active)
c1csc(-c2nc3ccccn3c2NC2CCCCC2)c1,AC50,[3],0.678 µM (active)
CCCOc1ccc(NC(=O)C2CC(=O)N(C(C)C)C2)cc1 (stereo not drawn),IC50,Leucine aminopeptidase,99.7 µM (active)
CC1CCN(C(=O)COC(=O)c2cc3ccccc3cc2O)CC1,IC50,cells,0.9 µM (active)
O=C(O)c1ccc(N2C(=O)/C(=C/c3nc4ccccc4[nH]3)SC2=S)cc1,AC50,[3],0.009 µM (active)
CSc1cc(-c2ccccc2)n(Cc2c(Cl)cccc2Cl)c(=O)c1C#N,EC50,BJ [4],5.96 µM (active)
same,EC50,BJ [5],64.7 µM (inconclusive)
same,EC50,BJ [6],2.86 µM (active)
same,EC50,[7],3.1 µM (active)
